The source of these data is US8188069B2, “Azepine derivatives as gamma-secretase inhibitors” (Eli Lilly and Company, priority 2007, dated 2012).

For one experiment, the system named is plasma A-beta. The experiment in a line: In vivo suppression of β-amyloid, blood assay (plasma total β-amyloid ELISA). Details: species or system PDAPP mice. The following applies: 3 mg/kg b.i.d. for 7 days; p<0.001 relative to vehicle control. How it is done: (§1) This example illustrates how the compounds of this invention could be tested for in vivo suppression of β-amyloid release and/or synthesis. For these experiments, 3 to 4 month old PDAPP mice are used [Games et al., (1995) Nature 373:523-527]. Depending upon which compound is being tested, the compound is usually formulated at between 1 and 10 mg/mL. Because of the low solubility factors of the compounds, they may be formulated with various vehicles, such as corn oil; 10% ethanol in corn oil; 2-hydroxypropyl-β-cyclodextrin (Research Biochemicals International, Natick, Mass.); and carboxy-methyl-cellulose (Sigma Chemical Co., St. Louis, Mo.).
For acute efficacy studies, PDAPP mice are dosed orally by gavage and 3 hours later the animals are euthanized via CO2 narcosis. For sub-chronic studies, PDAPP mice are dosed once-a-day or twice-a-day for 7 days, and sacrificed 3 hours after the last dose. […]
The Total β-amyloid 1-x sandwich ELISA, quantitating essentially all species of β-amyloid (including β-amyloid 1-40 and β-amyloid 1-42), employs two monoclonal antibodies (mAb) to β-amyloid. […]
The 266 and 21F12 capture mAbs are coated at 10 μg into 96-well immunoassay plates (Costar, Cambridge, Mass.) overnight at room temperature. […] Reaction product is quantified using a Molecular Devices Vmax (Molecular Devices, Menlo Park, Calif.) measuring the difference in absorbance at 450 nm and 650 nm. […]

Experiment [1] deals with β-amyloid peptide production in 293 751 SWE cells (HEK293 transfected with APP751 Swedish mutation). Description: In vitro inhibition of β-amyloid production (ELISA, 293 751 SWE cells). Type of experiment: cell-based, human. Particulars: two hour incubation, n = 3. How it is done:
This screening assay employed cells (HEK293=human kidney cell line) which were stably transfected with the gene for amyloid precursor protein 751 (APP751) containing the double mutation Lys651Met652 to Asn651Leu652 (APP751 numbering) in the manner described in International Patent Application Publication No. 94/10569. This mutation is commonly called the Swedish mutation and the cells, designated as “293 751 SWE”, were plated in Corning 96-well plates at 2-4×10^4 cells per well in Dulbecco's minimal essential media (Sigma, St. Louis, Mo.) plus 10% fetal bovine serum. Cell number is important in order to achieve β-amyloid ELISA results within the linear range of the assay (˜0.03 to 1.0 ng per mL).
Following overnight incubation at 37° C. in an incubator equilibrated with 5% carbon dioxide, media are removed and replaced with a stock solution of test compound (200 μL per well) for a two hour incubation period.
At the end of the incubation period, 100 μL from each well, of conditioned media or appropriate dilutions thereof are transferred into an ELISA plate pre-coated with antibody 266 [P. Seubert, Nature (1992) 359:325-327] against amino acids 13-28 of β-amyloid peptide as described in International Patent Application Publication No. 94/10569 and stored at 4° C. overnight. An ELISA assay employing labeled antibody 3D6 [P. Seubert, Nature (1992) 359:325-327] against amino acids 1-5 of β-amyloid peptide is run the next day to measure the amount of β-amyloid peptide produced. The results of the β-amyloid peptide ELISA are fit to a standard curve and expressed as ng/mL β-amyloid peptide and the concentration of test compounds producing 50% inhibition (IC50) of β-amyloid peptide production are estimated using a four parameter logistic model within Graph Pad Prism (San Diego, Calif.).

A further experiment relates to Hippocampal Total A-beta. The experiment in a line: In vivo suppression of β-amyloid, brain assay (hippocampal total A-beta ELISA). Particulars: young heterozygous PDAPP mice, sacrifice 3 hours post-administration. How it is done: as §1
For acute efficacy studies, PDAPP mice are dosed orally by gavage and 3 hours later the animals are euthanized via CO2 narcosis. For sub-chronic studies, PDAPP mice are dosed once-a-day or twice-a-day for 7 days, and sacrificed 3 hours after the last dose. Blood is taken by cardiac puncture using a 1 cc 25G ⅝″ tuberculin syringe/needle coated with solution of 0.5 M EDTA, pH 8.0. The blood is placed in a Becton-Dickinson vacutainer tube containing EDTA and spun down for 15 minutes at 1500×g at 5° C. The brains of the mice are then removed and the cortex and hippocampus are dissected out, placed in labeled eppendorf tubes and rapidly frozen on dry ice.
To prepare hippocampal and cortical tissue for enzyme-linked immunosorbent assays (ELISAs) each brain region is homogenized in 10 volumes of ice cold guanidine buffer (5.0 M guanidine-HCl, 50 mM Tris-HCl, pH 8.0) using a Polytron. The homogenates are gently rocked on a rotating platform for three to four hours at room temperature and stored at −20° C. prior to quantitation of β-amyloid.
The brain homogenates are diluted 1:10 with ice-cold casein buffer [0.25% casein, phosphate buffered saline (PBS), 0.05% sodium azide, 20 μg/ml aprotinin, 5 mM EDTA, pH 8.0, 10 μg/ml leupeptin], thereby reducing the final concentration of guanidine to 0.5 M, before centrifugation at 16,000×g for 20 minutes at 4° C. Samples are further diluted, if necessary, to achieve an optimal range for the ELISA measurements by the addition of casein buffer with 0.5 M guanidine hydrochloride added. The β-amyloid standards (1-40 or 1-42 amino acids) are prepared such that the final composition equaled 0.5 M guanidine in the presence of 0.1% bovine serum albumin (BSA).
The Total β-amyloid 1-x sandwich ELISA, quantitating essentially all species of β-amyloid (including β-amyloid 1-40 and β-amyloid 1-42), employs two monoclonal antibodies (mAb) to β-amyloid. The capture antibody, 266 [P. Seubert, Nature (1992) 359:325-327], is specific to amino acids 13-28 of β-amyloid. The antibody 3D6 [Johnson-Wood et al., PNAS USA (1997) 94:1550-1555], which is specific to amino acids 1-5 of β-amyloid, is biotinylated and served as the reporter antibody in the assay. The 3D6 biotinylation procedure employs the manufacturer's (Pierce, Rockford, Ill.) protocol for NHS-biotin labeling of immunoglobulins except that 100 mM sodium bicarbonate, pH 8.5 buffer is used.
The 266 and 21F12 capture mAbs are coated at 10 μg into 96-well immunoassay plates (Costar, Cambridge, Mass.) overnight at room temperature. The plates are then aspirated and blocked with 0.25% human serum albumin in PBS buffer for at least 1 hour at room temperature, then stored desiccated at 4° C. until use. The plates are rehydrated with wash buffer (Tris-buffered saline, 0.05% Tween 20) prior to use. […]

Regarding `CC(C)[C@H](O)C(=O)N[C@@H](C)C(=O)N[C@H]1C=C(c2ccccc2)C=CN(C)C1=O` (single isomer, unassigned) [1 (diasteromer 2)], the “reduction of plasma A-beta” value with plasma A-beta came to 54%. In experiment [1] (Homo sapiens, HEK293, 2 h), the IC50 was determined as 0.005 ± 0.0007 µM. The “Hippocampal Total A-beta % REDUCTION” value is recorded as 18% in the experiment with Hippocampal Total A-beta (0.1 mg/kg oral, n = 1 experiment); 31 ± 13% in the experiment on Hippocampal Total A-beta (0.3 mg/kg oral, mean ± SD, n = 2 experiments); 48 ± 11% in the experiment with Hippocampal Total A-beta (1 mg/kg oral, mean ± SD, n = 3 experiments); 59 ± 5% with Hippocampal Total A-beta (3 mg/kg oral, mean ± SD, n = 5 experiments); 69% in the experiment on Hippocampal Total A-beta (10 mg/kg oral, n = 1 experiment).
`CC(C)[C@H](F)C(=O)N[C@@H](C)C(=O)NC1C=C(c2ccccc2)C=CN(C)C1=O` (single isomer, unassigned) [2 (diastereomer 1)] yielded an IC50 in experiment [1] of 3.33 ± 0.43 µM.
The compound `CC(C)[C@H](F)C(=O)N[C@@H](C)C(=O)NC1C=C(c2ccccc2)C=CN(C)C1=O` (single isomer, unassigned) [2 (diastereomer 2)] yielded an IC50 in experiment [1] of 0.008 ± 0.0008 µM.
`CC(C)C1=CC(NC(=O)[C@H](C)NC(=O)[C@@H](O)C(C)C)C(=O)N(C)C=C1` (single isomer, unassigned) [3 (diastereomer 1)] returned an IC50 in experiment [1] of 10.7 ± 1.8 µM.
On the same count and under the same terms, the value for `CC(C)C1=CC(NC(=O)[C@H](C)NC(=O)[C@@H](O)C(C)C)C(=O)N(C)C=C1` (single isomer, unassigned) [3 (diastereomer 2)] was 0.036 ± 0.001 µM.
